Source: paper PMC9455983 (International Journal of Molecular Sciences, 2022)
pKi: −log10 of the molar value. Read-outs that look alike come from different tables or passages of the source.

Columns and labels:
[1] = target: T1, mu-opioid receptor (MOR) (Rattus norvegicus, UniProt P33535); test: MOR radioligand competition binding assay ([3H]-DAMGO); settings: Mu screening results
T1 construct: Rat cortices were homogenized using 50 mM Tris, pH 7.4, and centrifuged at 16,500 rpm for 10 min; from tissue; host or cells: rat cortex membranes
Protocol: MOR binding assay: Rat cortices were homogenized using 50 mM Tris, pH 7.4, and centrifuged at 16,500 rpm for 10 min. The pellets were resuspended in fresh buffer and incubated at 37 °C for 30 min. Following incubation, the suspensions were centrifuged as before, the resulting pellets were resuspended in 100 volumes of 50 mM Tris, pH 7.4 plus 2 mg/mL bovine serum and the suspensions combined. Each assay tube contained 0.5 mL of membrane suspension, 2 nM [^3H]-DAMGO, and 0.02 mg/mL mixture in a total volume of 0.65 mL [13, 45, 53, 55].
(§1) All three binding assays were terminated by filtration through GF/B filters, soaked in 5 mg/mL bovine serum albumin, 50 mM Tris, pH 7.4, on a Tomtec Mach II Harvester 96. The filters were subsequently washed with 6 mL of assay buffer. Bound radioactivity was counted on a Wallac Betaplate Liquid Scintillation Counter. Experiments were conducted using two replicates and repeated twice. Values in Scheme 2 represent the mean ± SD of two experiments with two replicates in each test.

[2] = target: T2, delta-opioid receptor (DOR) (Rattus norvegicus, UniProt P33533); test: DOR radioligand competition binding assay ([3H]-DPDPE); settings: Delta screening results
T2 construct: Rat cortices were homogenized using 50 mM Tris, pH 7.4, 10 mM MgCl2-6H2O, 200 µM PMSF; from tissue; host or cells: rat cortex membranes
Protocol: DOR binding assay: Rat cortices were homogenized using 50 mM Tris, pH 7.4, 10 mM MgCl2-6H2O, 200 µM PMSF, centrifuged and incubated as above. Each assay tube contained 2 nM [^3H]-DPDPE. Assay tubes were incubated for 2.5 h at 25 °C. Unlabeled DPDPE was used as a competitor to generate a standard curve and determine nonspecific binding.
as §1

[3] = target: T3, kappa-opioid receptor (KOR) (Cavia porcellus, UniProt P41144); test: KOR radioligand competition binding assay ([3H]U69,593); design: species or system guinea pig; settings: Kappa screening results
T3 construct: Guinea pig cortices and cerebella were homogenized using 50 mM Tris, pH 7.4; from tissue; host or cells: guinea pig cortex and cerebellum membranes
Protocol: KOR binding assay: Guinea pig cortices and cerebella were homogenized using 50 mM Tris, pH 7.4, 10 mM MgCl2-6H2O, […] centrifuged and incubated as above. Each assay tube contained 2 nM [^3H]U69,593. Assay tubes were incubated for 2 h at 25 °C. Unlabeled U50,488 was used as a competitor to generate a standard curve and determine nonspecific binding.
as §1

[4] = experiment 1, unit inferred, read-out: Ki (Exp 1)
[5] = experiment 2, unit inferred, read-out: Ki (Exp 2)
[6] = mean of Exp 1 and Exp 2, unit inferred, read-out: MEAN (Ki)
[7] = mean of two experiments, read-out: Ki
[8] = first Ki column, unit not printed (apparently M), read-out: Ki (first column)
[9] = mean of both Ki, unit inferred, read-out: MEAN (Ki)
[10] = second Ki column, unit not printed (apparently M), read-out: Ki (second column)

SMILES: CC(C)C[C@@H](CN1C(=N)NC[C@@H]1C)N1C[C@H](Cc2ccc(O)cc2)NC1=N [1968-42]
- pKi [1, 4]: 5.67
- pKi [1, 5]: 5.61
- pKi [1, 6]: 5.64
- pKi [1, 7]: 5.64
- pKi [2, 8]: 4.69
- pKi [2, 9]: 4.25
- pKi [2, 7]: 4.25
- pKi [2, 10]: 4.04
- pKi [3, 4]: 4.91
- pKi [3, 5]: 4.91
- pKi [3, 6]: 4.91
- pKi [3, 7]: 4.91

SMILES: Cc1cc(O)cc(C)c1C[C@H]1CNC(=N)N1C[C@H](Cc1c(C)cc(O)cc1C)N1C[C@H](Cc2ccccc2)NC1=N [1968-61]
- pKi [1, 4]: 7.39
- pKi [1, 5]: 7.25
- pKi [1, 6]: 7.32
- pKi [1, 7]: 7.32
- pKi [2, 8]: 5.97
- pKi [2, 9]: 5.99
- pKi [2, 7]: 5.99
- pKi [2, 10]: 6.01
- pKi [3, 4]: 6.06
- pKi [3, 5]: 5.91
- pKi [3, 6]: 5.98
- pKi [3, 7]: 5.98

SMILES: Cc1cc(O)cc(C)c1C[C@H]1CN([C@@H](Cc2c(C)cc(O)cc2C)CN2C(=N)NC[C@@H]2Cc2ccccc2)C(=N)N1 [1968-68]
- pKi [1, 4]: 7.05
- pKi [1, 5]: 7.12
- pKi [1, 6]: 7.08
- pKi [1, 7]: 7.08
- pKi [2, 8]: 6.37
- pKi [2, 9]: 6.34
- pKi [2, 7]: 6.34
- pKi [2, 10]: 6.30
- pKi [3, 4]: 6.27
- pKi [3, 5]: 6.25
- pKi [3, 6]: 6.26
- pKi [3, 7]: 6.26

SMILES: Cc1cc(O)cc(C)c1C[C@H]1CNC(=N)N1C[C@H](Cc1ccc(O)cc1)N1C[C@H](CC(C)C)NC1=N [1968-71]
- pKi [1, 4]: 7.24
- pKi [1, 5]: 7.28
- pKi [1, 6]: 7.26
- pKi [1, 7]: 7.25
- pKi [2, 8]: 5.42
- pKi [2, 9]: 5.46
- pKi [2, 7]: 5.47
- pKi [2, 10]: 5.52
- pKi [3, 4]: 6.43
- pKi [3, 5]: 6.41
- pKi [3, 6]: 6.42
- pKi [3, 7]: 6.42

SMILES: CC(C)C[C@H]1CN([C@@H](Cc2ccccc2)CN2C(=N)NC[C@@H]2Cc2ccc(O)cc2)C(=N)N1 [1968-69]
- pKi [1, 4]: 6.68
- pKi [1, 5]: 6.73
- pKi [1, 6]: 6.70
- pKi [1, 7]: 6.70
- pKi [2, 8]: 5.37
- pKi [2, 9]: 5.33
- pKi [2, 7]: 5.33
- pKi [2, 10]: 5.30
- pKi [3, 4]: 5.67
- pKi [3, 5]: 5.67
- pKi [3, 6]: 5.67
- pKi [3, 7]: 5.67

SMILES: Cc1cc(O)cc(C)c1C[C@H]1CN([C@@H](CC(C)C)CN2C(=N)NC[C@@H]2C)C(=N)N1 [1968-44]
- pKi [1, 4]: 6.80
- pKi [1, 5]: 6.61
- pKi [1, 6]: 6.70
- pKi [1, 7]: 6.70
- pKi [2, 8]: 4.99
- pKi [2, 9]: 5.12
- pKi [2, 7]: 5.12
- pKi [2, 10]: 5.30
- pKi [3, 4]: 5.74
- pKi [3, 5]: 5.85
- pKi [3, 6]: 5.79
- pKi [3, 7]: 5.79

SMILES: N=C1NC[C@H](Cc2ccc(O)cc2)N1C[C@H](Cc1ccc(O)cc1)N1C[C@H](Cc2ccccc2)NC1=N [1968-21]
- pKi [1, 4]: 6.76
- pKi [1, 5]: 6.70
- pKi [1, 6]: 6.73
- pKi [1, 7]: 6.73
- pKi [2, 8]: 5.11
- pKi [2, 9]: 5.11
- pKi [2, 7]: 5.11
- pKi [2, 10]: 5.12
- pKi [3, 4]: 5.44
- pKi [3, 5]: 5.48
- pKi [3, 6]: 5.46
- pKi [3, 7]: 5.46

SMILES: CC(C)C[C@@H](CN1C(=N)NC[C@@H]1Cc1ccc(O)cc1)N1C[C@H](Cc2ccccc2)NC1=N [1968-25]
- pKi [1, 4]: 6.15
- pKi [1, 5]: 6.14
- pKi [1, 6]: 6.15
- pKi [1, 7]: 6.15
- pKi [2, 8]: 4.60
- pKi [2, 9]: 4.52
- pKi [2, 7]: 4.52
- pKi [2, 10]: 4.45
- pKi [3, 4]: 5.18
- pKi [3, 5]: 5.48
- pKi [3, 6]: 5.31
- pKi [3, 7]: 5.31

SMILES: C[C@H]1CNC(=N)N1C[C@H](Cc1ccccc1)N1C[C@H](Cc2ccc(O)cc2)NC1=N [1968-34]
- pKi [1, 4]: 5.83
- pKi [1, 5]: 5.97
- pKi [1, 6]: 5.89
- pKi [1, 7]: 5.89
- pKi [2, 8]: 5.29
- pKi [2, 9]: 5.18
- pKi [2, 7]: 5.18
- pKi [2, 10]: 5.09
- pKi [3, 4]: 5.19
- pKi [3, 5]: 5.04
- pKi [3, 6]: 5.11
- pKi [3, 7]: 5.11
